Assay [1] relates to S. pyogen. C203. The assay is described as follows: In vitro antibacterial activity, MIC (modified Autotiter method). The class given is cell-based, Streptococcus pyogenes. The note with it: Streptococcus pyogenes, 20 h, 18-20 hours at 37° C.; read-out: MIC S. pyogen. C203. The gist of the method: (§1)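 Broth microdilution on an automated Autotiter: compounds tested as solutions, starting stock 1,000 mcg./ml., twofold serial dilution in water, final 500 to 0.06 mcg./ml. in inoculated semisynthetic (glucose) medium.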

The test system of assay [2] is E. coli Vogel. The assay is described as above. The note with it: Escherichia coli, 20 h, 18-20 hours at 37° C.; read-out: MIC E. coli Vogel. The class given is cell-based, Escherichia coli. The gist of the method: as §1
Assay [3] relates to E. coli AB1932-1. The assay is described as above. The following applies: Escherichia coli, AB19321, 20 h, 18-20 hours at 37° C.; read-out: MIC E. coli AB1932-1. The class given is cell-based, Escherichia coli. An outline of the steps:
as §1

The subject of assay [4] is E. coli 100/B22. The description is as above. The class given is cell-based, Escherichia coli. The note with it: Escherichia coli, 100/B22, 20 h, 18-20 hours at 37° C.; read-out: MIC E. coli 100/B22. The gist of the method: as §1
Assay [5] has as its system Ps. aerug. MGH-2. The description is as above. The note with it: Pseudomonas aeruginosa, 20 h, 18-20 hours at 37° C.; read-out: MIC Ps. aerug. MGH-2. The class given is cell-based, Pseudomonas aeruginosa. An outline of the steps:
as §1

Assay [6] deals with A. niger 16404. The assay is described as follows: In vitro antifungal activity, MIC (modified Autotiter method). The class given is cell-based, Aspergillus niger. The following applies: Aspergillus niger, 16404, 20 h, 18-20 hours at 37° C.; read-out: MIC A. niger 16404. An outline of the steps: as §1
Assay [7] deals with Herpes simplex type 2 virus. Description: Virucidal activity in vitro (plaque inhibition test). The note with it: 2 mg. of test compound on growth medium. The class given is cell-based. As for the experimental part:
Virucidal activity of representative examples against Herpes simplex type 2 virus was determined in vitro employing a procedure similar to the plaque inhibition test for detection of specific inhibitors of DNA-containing viruses published by E. C. Herrmann, Jr., Proc. Soc. Exp. Biol. Med. 107, 142 (1961) wherein 2 mg. of the test compound was placed on the surface of the growth medium.

Assay [8] concerns P. mirab. MGH-1. Description: In vitro antibacterial activity, MIC (modified Autotiter method). The class given is cell-based, Proteus mirabilis. The note with it: Proteus mirabilis, 20 h, 18-20 hours at 37° C.; read-out: MIC P. mirab. MGH-1. The gist of the method: as §1
For assay [9], the system named is T. menta. 9129. Description: In vitro antifungal activity, MIC (modified Autotiter method). The class given is cell-based, Trichophyton mentagrophytes. The following applies: Trichophyton mentagrophytes, 20 h, 18-20 hours at 37° C.; read-out: MIC T. menta. 9129. The gist of the method:
as §1

Assay [10] concerns C. albicans Wisc. The description is as above. The class given is cell-based, Candida albicans. The following applies: Candida albicans, 20 h, 18-20 hours at 37° C.; read-out: MIC C. albicans Wisc. The gist of the method: as §1
In assay [11] the test system is C. albicans 10231. Described as above. The class given is cell-based, Candida albicans. The note with it: Candida albicans, 10231, 20 h, 18-20 hours at 37° C.; read-out: MIC C. albicans 10231. An outline of the steps:
as §1

Assay [12] concerns K. pneum. 39645. Description: In vitro antibacterial activity, MIC (modified Autotiter method). The class given is cell-based, Klebsiella pneumoniae. The note with it: Klebsiella pneumoniae, 20 h, 18-20 hours at 37° C.; read-out: MIC K. pneum. 39645. The gist of the method:
as §1

The test system of assay [13] is S. Aureus Smith. Described as above. The class given is cell-based, Staphylococcus aureus. The note with it: Staphylococcus aureus, 20 h, 18-20 hours at 37° C.; read-out: MIC S. Aureus Smith. The gist of the method:
as §1

Experimental findings from US4206215A, “Antimicrobial bis-[4-(substituted-amino)-1-pyridinium]alkanes” (Sterling Drug Inc., priority 1977, dated 1980) are described below.

`Clc1ccc(Nc2cc[n+](CCCCCCCCC[n+]3ccc(Nc4ccc(Cl)cc4)cc3)cc2)cc1` [Example 82, 1,9-bis-[4-(p-chlorophenylamino)-1-pyridinium]nonane dibromide]: the MIC in assay [1] worked out at 0.24 µg/mL; in assay [2], 0.98 µg/mL; in assay [3], 0.98 µg/mL; in assay [4], 1.95 µg/mL; in assay [5] it was 125 µg/mL; in [6], 15.6 µg/mL. For the same molecule, the MIC in [8] was above 125 µg/mL; in [9], 3.9 µg/mL; in assay [10], 3.9 µg/mL; in assay [11], 3.9 µg/mL; in assay [12], 7.8 µg/mL; in [13], 0.625 µg/mL. The “Virucidal activity against Herpes simplex type 2 virus” value (“Virucidal activity” for short) in [7] is reported as “active”.
As for `CCCCC(CC)CNc1cc[n+](CCCC[n+]2ccc(NCC(CC)CCCC)cc2)cc1` (centres unmarked) [Example 63, 1,4-bis-[4-(2-ethylhexylamino)-1-pyridinium]butane dibromide], the MIC in assay [1] is 1.25 µg/mL; in [2], 62.5 µg/mL; in assay [3] it was 7.8 µg/mL; in assay [4], 31.3 µg/mL; in assay [5] it was 125 µg/mL; in [6] it was 31.3 µg/mL. Moreover, the MIC was above 125 µg/mL in assay [8]; 15.6 µg/mL in [9]; 31.3 µg/mL in [10]; 31.3 µg/mL in assay [11]; above 125 µg/mL in [12]; 0.98 µg/mL in assay [13]. Moreover, the “Virucidal activity” value in [7] is “active”.
`Clc1ccc(Nc2cc[n+](CCCCCCC[n+]3ccc(Nc4ccc(Cl)cc4)cc3)cc2)cc1` [Example 81, 1,7-bis-[4-(p-chlorophenylamino)-1-pyridinium]heptane dibromide]: the MIC was 0.49 µg/mL in [1]; 3.9 µg/mL in [2]; 125 µg/mL in [3]; 3.9 µg/mL in assay [4]; above 125 µg/mL in assay [5]; 31.3 µg/mL in [6]. Moreover, the MIC is above 125 µg/mL in assay [8]; 7.8 µg/mL in [9]; 31.3 µg/mL in assay [10]; 31.3 µg/mL in assay [11]; above 125 µg/mL in [12]; 0.98 µg/mL in assay [13]. Further, the “Virucidal activity” value in assay [7] is “active”.
With `CCCCCCNc1cc[n+](CCCC[n+]2ccc(NCCCCCC)cc2)cc1` [Example 16, 1,4-bis-[4-(hexylamino)-1-pyridinium]butane dibromide], the MIC in assay [1] is 1.95 µg/mL; in assay [2], 125 µg/mL; in assay [3], 62.5 µg/mL; in assay [4] it was 125 µg/mL; in assay [5], above 250 µg/mL; in [6] it was 125 µg/mL. The MIC in assay [8] was above 125 µg/mL; in assay [9], 15.6 µg/mL; in assay [10] it was 125 µg/mL; in assay [11], 125 µg/mL; in assay [12], above 125 µg/mL; in assay [13], 7.8 µg/mL. Besides, the “Virucidal activity” value in assay [7] was “inactive”.
On to `CCCCCCNc1cc[n+](CCCCCCC[n+]2ccc(NCCCCCC)cc2)cc1` [Example 18, 1,7-bis-[4-(hexylamino)-1-pyridinium]heptane dibromide], for which the MIC was 0.49 µg/mL in assay [1]; 15.6 µg/mL in [2]; 7.8 µg/mL in assay [3]; 7.8 µg/mL in [4]; above 125 µg/mL in assay [5]; 15.6 µg/mL in assay [6]. For the same molecule, the MIC in assay [8] was above 125 µg/mL; in assay [9] it was 15.6 µg/mL; in assay [10] it was 7.8 µg/mL; in assay [11], 6.25 µg/mL; in [12], 15.6 µg/mL; in assay [13], 0.39 µg/mL. The “Virucidal activity” value in assay [7] is “active”.
For `c1c[n+](CCCCCCCCCC[n+]2ccc(NC3CCCCC3)cc2)ccc1NC1CCCCC1` [Example 40, 1,10-bis-[4-(cyclohexylamino)-1-pyridinium]decane dibromide], the MIC is 3.9 µg/mL in assay [1]; 15.6 µg/mL in [2]; 7.8 µg/mL in assay [3]; 15.6 µg/mL in assay [4]; above 125 µg/mL in assay [5]; 7.8 µg/mL in [6]. For the same molecule, the MIC in [8] was above 125 µg/mL; in assay [9], 1.95 µg/mL; in assay [10], 7.8 µg/mL; in [11] it was 3.9 µg/mL; in assay [12], above 125 µg/mL; in [13] it was 0.24 µg/mL. In addition, the “Virucidal activity” value in assay [7] was “inactive”.
For the molecule `CCCCC(CC)CNc1cc[n+](CCCCCCCCC[n+]2ccc(NCC(CC)CCCC)cc2)cc1` (centres unmarked) [Example 57, 1,9-bis-[4-(2-ethylhexylamino)-1-pyridinium]nonane dibromide], the MIC in assay [1] was 0.625 µg/mL; in assay [2], 0.98 µg/mL; in assay [3], 0.98 µg/mL; in [4], 0.98 µg/mL; in [5] it was 125 µg/mL; in [6], 15.6 µg/mL. Also, the MIC in assay [8] amounted to 125 µg/mL; in [9], 0.98 µg/mL; in assay [10] it was 3.9 µg/mL; in assay [11], 3.9 µg/mL; in [12], 7.8 µg/mL; in [13], 0.31 µg/mL. Further, in assay [7], the “Virucidal activity” value was “active”.
Take `CCCCC(CC)CNc1cc[n+](CCCCCC[n+]2ccc(NCC(CC)CCCC)cc2)cc1` (centres unmarked) [Example 54, 1,6-bis-[4-(2-ethylhexylamino)-1-pyridinium]hexane dibromide]: the MIC in assay [1] was 0.625 µg/mL; in assay [2], 7.8 µg/mL; in assay [3], 1.95 µg/mL; in assay [4], 3.9 µg/mL; in [5], above 250 µg/mL; in [6] it was 15.6 µg/mL. The MIC in [8] is above 125 µg/mL; in [9], 1.95 µg/mL; in assay [10] it was 7.8 µg/mL; in assay [11], 7.8 µg/mL; in assay [12], 125 µg/mL; in assay [13], 0.49 µg/mL. Besides, the “Virucidal activity” value in assay [7] is listed as “active”.
For `c1c[n+](CCCC[n+]2ccc(NC3CCCCC3)cc2)ccc1NC1CCCCC1` [Example 34, 1,4-bis-[4-(cyclohexylamino)-1-pyridinium]butane dibromide], the MIC in assay [1] was 31.3 µg/mL; in assay [2], 125 µg/mL; in [3] it was 125 µg/mL; in [4], 125 µg/mL; in assay [5], above 500 µg/mL; in assay [6], 500 µg/mL. The MIC is above 500 µg/mL in assay [8]; 125 µg/mL in assay [9]; 500 µg/mL in assay [10]; 500 µg/mL in assay [11]; above 500 µg/mL in assay [12]; 125 µg/mL in assay [13]. In addition, in assay [7], the “Virucidal activity” value is “inactive”.
Turning to `CCCCCCNc1cc[n+](CCCCC[n+]2ccc(NCCCCCC)cc2)cc1` [Example 31, 1,5-bis-[4-(hexylamino)-1-pyridinium]pentane dibromide], the MIC is 0.98 µg/mL in [1]; 125 µg/mL in assay [2]; 31.3 µg/mL in [3]; 62.5 µg/mL in [4]; above 125 µg/mL in assay [5]; 31.3 µg/mL in assay [6]. Further, the MIC in assay [8] is above 250 µg/mL; in assay [9] it was 31.3 µg/mL; in assay [10], 62.5 µg/mL; in assay [11] it was 31.3 µg/mL; in assay [12], above 125 µg/mL; in [13] it was 1.95 µg/mL. Further, the “Virucidal activity” value in assay [7] is on record as “active”.
Regarding `c1c[n+](CCCCC[n+]2ccc(NC3CCCCC3)cc2)ccc1NC1CCCCC1` [Example 35, 1,5-bis-[4-(cyclohexylamino)-1-pyridinium]pentane dibromide], the MIC in [1] was 15.6 µg/mL; in [2], above 500 µg/mL; in [3], above 500 µg/mL; in assay [4], above 500 µg/mL; in assay [5] it was above 500 µg/mL; in assay [6], 500 µg/mL. Also, the MIC was above 500 µg/mL in [8]; 125 µg/mL in [9]; 500 µg/mL in [10]; 500 µg/mL in assay [11]; above 500 µg/mL in assay [12]; 125 µg/mL in [13]. For the same molecule, the “Virucidal activity” value in [7] is given as “active”.
